Results: US11612580B2, “Compositions for inhibiting 3′ repair exonuclease 2 and methods of screening for such compositions” (THE BOARD OF REGENTS OF THE UNIVERSITY OF TEXAS SYSTEM, priority 2017, dated 2023)

What was measured:
msh2^−/− cells = test: puro(A)10 polymerase slippage assay, puromycin resistant colonies; assay type: cell-based, mouse; conditions: msh2^−/− cells with puro(A)10 reporter; 10 μM TREX2 inhibitor with puromycin; colonies counted about day 10; DMSO versus compounds p<0.02 (FIGS. 8B, 8C)
[1] = test system: mouse embryonic stem (ES) cells; test: reduction of mutations in mouse embryonic stem (ES) cells; assay type: cell-based; conditions: hits from Chembridge Diverset screen
Source text: Assays as described here were used to screen a Chembridge Diverset library (30,000 compounds). […] These small molecules are: 4-benzoyl-2-methyphenyl (2-nitrophenoxy) acetate; N-benzyl-2-([bis(furan-2-yl)-1,2,4-triazin-3-yl] sulfanyl) acetamide; 6-(benzylcarbamoyl)-1-methycyclohex-3-ene-1-carboxylic acid; 8-(phenylamino)naphthalene-1-sulfonic acid; and benzyl 6-(furan-2-yl)-3-methyl-4-oxo-4,5,6,7-tetrahydro-1H-indole-2-carboxylate. […] TX2Is appear to be nontoxic to cells and TREX2-deletion was asymptomatic for >50% of life span.

Row | SMILES | spontaneous polymerase slippage (fraction of puromycin resistant cells) (msh2^−/− cells) | mutations in mouse embryonic stem (ES) cells [1]
1 | CC1(C(=O)O)CC=CCC1C(=O)NCc1ccccc1 (stereo not drawn) [Compound 11, 6-(benzylcarbamoyl)-1-methycyclohex-3-ene-1-carboxylic acid] | reduce spontaneous polymerase slippage | reduce a range of mutations
2 | Cc1cc(C(=O)c2ccccc2)ccc1OC(=O)COc1ccccc1[N+](=O)[O-] [Compound 1, 4-benzoyl-2-methyphenyl (2-nitrophenoxy) acetate] | reduce spontaneous polymerase slippage | reduce a range of mutations
3 | Cc1c(C(=O)OCc2ccccc2)[nH]c2c1C(=O)CC(c1ccco1)C2 (stereo not drawn) [benzyl 6-(furan-2-yl)-3-methyl-4-oxo-4,5,6,7-tetrahydro-1H-indole-2-carboxylate] |  | reduce a range of mutations
4 | O=S(=O)(O)c1cccc2cccc(Nc3ccccc3)c12 [Compound 6, 8-(phenylamino)naphthalene-1-sulfonic acid] | reduce spontaneous polymerase slippage | reduce a range of mutations
5 | O=C(CSc1nnc(-c2ccco2)c(-c2ccco2)n1)NCc1ccccc1 [Compound 10, N-benzyl-2-([bis(furan-2-yl)-1,2,4-triazin-3-yl]sulfanyl) acetamide] | reduce spontaneous polymerase slippage | reduce a range of mutations
